Marks after values point to notes of the source that are not given here.
Assays:
[1] = tested on: scopolamine and MK801-induced cognitive impairment; experiment: Example 5: Y-maze test, scopolamine and MK801-induced deficits, co-administration with donepezil (Table 102); type: in vivo, ddY mouse
Source text: (§1) Thus, scopolamine-induced cognitive impairment model, one of the AD-like model, has been used to predict pharmacodynamic signals of putative procognitive compounds, utilizing the acetylcholinesterase inhibitor donepezil for illustration (See, Citations 1 and 2). The present inventors investigated the effect of each compound on reversal of scopolamine-induced deficits in performance of Y-maze test in mice, and they also investigated adjunctive effect of compounds with donepezil on reversal of deficits induced by scopolamine and MK801 in mice.
(§2) Used animal: ddY mouse (SLC)
(§3) In the experiments, the mice were grouped in the same way using Stat Preclinica (Version 1.03295; Takumi Information Technology Inc.). The selected mice were divided into 5 to 7 groups of 7 to 12 mice using the “completely randomization design by the single variable” program (Analytical program version 1.0.7), with body weight on the testing day. After grouping, p values for Bartlett's test and ANOVA across all groups were greater than 0.2, indicating no significant difference in this parameter among the groups.
The required amount of each compound was weighed and put into a glass homogenizer. The required amount of 0.5% MC (methyl cellulose) solution was added, and each compound was suspended to give a 10 mg/kg dosing suspension.
The required amount of donepezil was weighed and put into a glass homogenizer. The required amount of 0.5% MC solution was added, and donepezil was suspended to give a suspension at concentration of 1 mg/mL (10 mg/kg dosing suspension).
(§4) The required amount of scopolamine and MK801 were weighed, and saline was added to it to give 0.3 mg/mL and 0.015 mg/mL solution, respectively.
(§5) 90 Min before the test, the mice were orally administered each compound, donepezil, and vehicle (0.5% methyl cellulose, 10 mL/kg). After 60 min, memory impairment was induced by administering scopolamine (0.6 mg/kg, s.c.) with (co-administration) or without (mono-administration) MK801 (0.03 mg/kg, s.c.). The control group received saline (2 mL/kg, s.c.) rather than scopolamine and MK801.
(§6) The Y-maze used herein is a three-arm maze with equal angles between all arms. The mazefloor and walls were constructed from black acrylic resin. The mice were initially placed within one arm, and the sequence and number of arm entries were recorded manually for each mouse over an 8-min period.
(§7) Data were processed and analyzed with Microsoft® Office Excel 2003. The alternation behavior was defined as entries into all three arms on consecutive occasions. The percent alternation behavior in each animal was calculated using the following formula, and rounded to one decimal place.
(§8) Alternation behavior(%)=[actual alternation/(total arm entries−2)]×100
(§9) Restoration ratio of alternation behavior (%) in each animal was calculated using the following formula, and rounded to one decimal place.
(§10) Restoration ratio of alternation behavior in each animal (%)=y Alternation behavior in each animal (%)=x Mean of alternation behavior in vehicle-treated group (group No. 1) (%)=A Mean of alternation behavior in scopolamine-treated group (group No. 2) (%)=B
(§11) Data were expressed as the mean of the percent alternation behavior, the number of total arm entries and the restoration ratio of alternation behavior.
(§12) Values of Y-maze tests are expressed as mean of alternation behavior (n=7−12).
(§13) Alternation behaviors in the scopolamine-treated groups were compared to those in the control groups using Wilcoxon rank sum test (Stat preclinical; Version 1.03295; Takumi Information Technology Inc.) with a two-sided significance level of 0.05.
Restoration of alternation behavior was analyzed using Stat Preclinica. Alternation behaviors in the Donepezil (10 mg/kg, p.o.)-treated group were compared to those in the co-administrated groups of test compounds with donepezil (10 mg/kg, p.o.) using non-parametric Dunnett multiple comparison test (Analytical program version 1.0.2) with a two-sided significance level of 0.05.

[2] = tested on: scopolamine-induced cognitive impairment; experiment: Example 5: Y-maze test, scopolamine-induced cognitive impairment, single-agent administration (Table 101); type: in vivo, ddY mouse; conditions: p.o., scopolamine-treated, # = P<0.05 vs scopolamine group
Source text: as §1, §2, §3
The required amount of each compound was weighed and put into a glass homogenizer. […]
as §4, §5, §6, §7, §8, §9, §10, §11, §12, §13
Restoration of alternation behavior was analyzed using Stat Preclinica. Alternation behaviors in the vehicle-treated group were compared to those in the test substance-treated groups using non-parametric Dunnett multiple comparison test (Analytical program version 1.0.2) with a two-sided significance level of 0.05.

[3] = compound 0.1 mg/kg, p.o. co-administered with Donepezil 10 mg/kg, p.o.

## CC(=O)N1CCC(N2CCC(c3nc(-n4nc(C(C)C)c5cccc(F)c54)no3)CC2)CC1.Cl [Example 232, 1-(4-{3-[7-fluoro-3-(propan-2-yl)-1H-indazol-1-yl]-1,2,4-oxadiazol-5-yl}-1,4′-bipiperidin-1′-yl)ethanone hydrochloride]
[1]; compound 0.03 mg/kg, p.o. alone
  Alternation behavior (%): 46.7%
[1]; compound 0.03 mg/kg, p.o. co-administered with Donepezil 10 mg/kg, p.o.
  Alternation behavior (%): 48.5%
[1]; compound 0.1 mg/kg, p.o. alone
  Alternation behavior (%): 48.0^# %
[1]; [3]
  Alternation behavior (%): 62.4^$ %
[2]; compound 1 mg/kg
  Alternation behavior (%): 66.3^# %
[2]; compound 3 mg/kg
  Alternation behavior (%): 63.0^# %
[2]; compound 10 mg/kg
  Alternation behavior (%): 53.6%

## CC(C)c1nn(-c2noc(C3CCN(C4CCN(C(=O)CO)CC4)CC3)n2)c2c(F)cccc12 [Example 242, 1-(4-{3-[7-fluoro-3-(propan-2-yl)-1H-indazol-1-yl]-1,2,4-oxadiazol-5-yl}-1,4′-bipiperidin-1′-yl)-2-hydroxyethanone]
[1]; compound 0.1 mg/kg, p.o. alone
  Alternation behavior (%): 51.2^# %
[1]; [3]
  Alternation behavior (%): 58.6^$ %
[1]; compound 0.3 mg/kg, p.o. alone
  Alternation behavior (%): 57.4^# %
[1]; compound 0.3 mg/kg, p.o. co-administered with Donepezil 10 mg/kg, p.o.
  Alternation behavior (%): 62.5^$ %
[2]; compound 1 mg/kg
  Alternation behavior (%): 63.4^# %
[2]; compound 3 mg/kg
  Alternation behavior (%): 62.9^# %
[2]; compound 10 mg/kg
  Alternation behavior (%): 57.5%

Source: patent US20140057895A1, “INDAZOLE- AND PYRROLOPYRIDINE-DERIVATIVE AND PHARMACEUTICAL USE THEREOF” (priority 2011, published 2014)
